Results: patent US20240182513A1, “SEPARATION OF METAL IONS FROM A SAMPLE USING GLYCOLIPIDS” (ARIZONA BOARD OF REGENTS ON BEHALF OF THE UNIVERSITY OF …, priority 2021, published 2024)

Legend:
[1] = Ion flotation of uranium from Monument Valley groundwater with rhamnolipid collectors; conditions: pH 6.5
Excerpt: Groundwater Collection and Analysis: The Monument Valley site is in Cane Valley, AZ, which is in northeastern Arizona. Groundwater was collected from monitoring well 662, which is down gradient of the source zone within the boundaries of the uranium groundwater plume. Samples were collected using dedicated bladder pumps and a QED Micropurge Controller. Groundwater was collected into a 50 L LDPE carboy (Thermo Scientific Nalgene) after the groundwater's pH and dissolved oxygen levels from the pump stabilized. The solution was stored as received, on the lab bench at ambient temperature until use.
For cation and anion analysis, groundwater was filtered ([…]) then diluted with 2% trace metals grade nitric acid (Fisher Scientific, Waltham, MA) in metal-free polypropylene 15 mL centrifuge tubes (VWR, Radnor, PA). Cations were analyzed using an Elan DRC-II inductively coupled plasma mass spectrometer (ICP-MS). Anions (F^−1, Cl^−1, Br^−1, NO2^−1, NO3^−1, […], and SO4^−2) were analyzed by using a Thermo Scientific Dionex ICS-6000 high-performance ion chromatography system. Data generated in this geochemical analysis were used to model uranium speciation using Visual MINTEQ 3.1. Only major solution constituents—those greater than 10 μg L^−1 for metals or 5 μmol L^−1 for anions—were included in the experiment, and carbonates were excluded because they are stripped from solution when nitrogen is sparged in the flotation process.
Chemicals: Both biosynthetic and synthetic monorhamnolipid collectors were tested for flotation efficiency. Biosynthetic monorhamnolipid tail lengths ‘m’ and ‘n’ range from 4 to 12 due to natural congener variation. Synthetic monorhamnolipids (Rha-C10-C10, Rha-C12-C12, or Rha-C14-C14) were synthesized with equal length tails where ‘m’=‘n’=6-14. The production and purification of biosynthetic monorhamnolipids (bio-mRL) from Pseudomonas aeruginosa ATCC 9027 has been previously described by Hogan et al., J. Hazard. Mater. 2017, 340, pp. 171-178. This organism exclusively produces monorhamnolipids—rhamnolipids with a single rhamnose sugar in the hydrophilic moiety of the molecule—as a congener mixture with varying hydrophobic tail lengths, in which the rhamnosyl-β-hydroxydecanoyl-β-hydroxydecanoate (C10-C10) dominates at 75-85 wt %. A molecular weight of 504 g mol^−1 (based on the C10-C10 structure) was used to estimate the bio-mRL concentration. Synthetic monorhamnolipids with decyl (Rha-C10-C10), dodecyl (Rha-C12-C12), and tetradecyl (Rha-C14-C14) hydrophobic moieties were prepared for comparative experiment. The molecular weights of the synthetic monorhamnolipids are 504.7, 560.8, and 616.9, respectively. All solutions were made using nanopure water (≥18 MΩ-cm). pH was adjusted with HNO3 and NaOH. […]

[2] = Example 2.2 glycolipid facilitated chemical precipitation: magnesium
Procedure: Surfactants: Each of the solutions were made by dissolving a single glycolipid (GlycoSurf Inc., Salt Lake City, >95% purity) in nanopure water (≥18 MΩ-cm) then adjusting the pH to 6.90±0.05 with HNO3 and NaOH. Nine different structural variants were selected to examine the effect of the headgroup and number and length of the hydrophobic tail(s) on glycolipids as a chemical precipitant (Table 6). These solutions were made in advance and stored at 4° C. for up to one month and brought to room temperature (˜25° C.) before each experiment.
Metals: Three metals were tested for binding with the glycolipids: lead as […] (Fisher Scientific, Waltham, MA, 99% purity), lanthanum as La(NO3)3 6(H2O) (Sigma-Aldrich, St. Louis, MO, 99.99% purity), and magnesium as Mg(NO3)2 6(H2O) (Sigma-Aldrich, St. Louis, MO, 99% purity. Metal solutions (5 mM) were made using nanopure water (≥18 MΩ-cm) and were not pH balanced.
Each metal (Pb^2+, La^3+, and Mg^2+) was evaluated separately with each of the nine glycolipids. […]
(§1) Samples for the filtration treatment were vortexed for 5 sec, then a 0.6 ml aliquot was collected with a 1 ml syringe. […] Following collection, the metal content in all samples was analyzed at the Arizona Laboratory for Emerging Contaminants (ALEC) at the University of Arizona using inductively coupled plasma mass spectrometry.
Calculations: The efficiency of metal removal (R) was determined for each of the three treatments: Ra for the active mixing/adsorption treatment, Rf for the glycolipid and filtration treatment, and Rc for the glycolipid and centrifugation treatment. R was determined by comparing the solution metal concentration of the treatment sample (Cnt for the glycolipid with no further treatment sample, Cf for the glycolipid and filtration sample, and Cc for the glycolipid and centrifugation sample) to the solution metal concentration of a glycolipid-free control (Ci) that underwent the same handling and processing steps. […]

[3] = Example 2.2 glycolipid facilitated chemical precipitation: lead; conditions: for Pb^2+ maximum removal: precipitation without further treatment, maximum over molar ratios
Procedure: (§2) Nine different structural variants were selected to examine the effect of the headgroup and number and length of the hydrophobic tail(s) on glycolipids as a chemical precipitant (Table 6). These solutions were made in advance and stored at 4° C. for up to one month and brought to room temperature (˜25° C.) before each experiment.
(§3) Each metal (Pb^2+, La^3+, and Mg^2+) was evaluated separately with each of the nine glycolipids. […] The reactions were mixed in the order of nanopure water (≥18 MΩ-cm), glycolipid solution, then metal solution. The metal and glycolipid solutions were continuously stirred as they were aliquoted into the reaction tubes. All experiments were performed in triplicate.
(§4) The reaction tubes were rotated overnight (16 to 24 h) and then three samples were collected from each tube to measure metal removal from solution: (1) no further treatment; (2) an additional filtration step; and (3) an additional centrifugation step. Briefly, for the glycolipid adsorption treatment samples all tubes were vortexed for approximately 5 sec immediately before sampling to ensure that non-adsorbed glycolipid-metal complexes were mixed into the solution column. After mixing, 0.1 ml of the reaction solution was aliquoted into a dilution tube of 2% trace metal grade nitric acid for analysis. This sample measures the loss of metal due to the formation of hydrophobic scums or adsorbed complexes not attributable to the subsequent filtration or centrifugation treatments.
Samples for the filtration treatment were vortexed for 5 sec, then a 0.6 ml aliquot was collected with a 1 ml syringe. A GHP acrodisc disk filter (hydrophilic polypropylene membrane, 0.45 µm pore size, 25 mm disc diameter) from Pall Life Sciences (Port Washington, New York) or PTFE disk filters (hydrophobic polytetrafluoroethylene membrane, 0.45 μm pore size, 25 mm disc diameter) from Fisher Scientific (Waltham, MA) was then placed onto the end of the syringe and approximately 0.1 ml of filtrate was collected into a dilution tube for analysis. The centrifuge sample was collected by centrifuging the remaining reaction solution at 10,000 RCF for 15 min. Approximately 0.1 ml of the supernatant was aliquoted into a dilution tube for analysis. Following collection, the metal content in all samples was analyzed at the Arizona Laboratory for Emerging Contaminants (ALEC) at the University of Arizona using inductively coupled plasma mass spectrometry.
(§5) R was determined by comparing the solution metal concentration of the treatment sample (Cnt for the glycolipid with no further treatment sample, Cf for the glycolipid and filtration sample, and Cc for the glycolipid and centrifugation sample) to the solution metal concentration of a glycolipid-free control (Ci) that underwent the same handling and processing steps. The equations for these calculations are shown below: […]

[4] = Example 2.2 glycolipid facilitated chemical precipitation: lanthanum
Procedure: as §2, §3
as §4, with “This sample measures the loss of metal due to the formation of hydrophobic scums or adsorbed complexes not attributable to the subsequent filtration or centrifugation treatments.” left out
as §1
as §5, with “steps.” for “steps. The equations for these calculations are shown below:”

[5] = precipitation followed by centrifugation, molar ratio not stated / over ratios
[6] = precipitation without further treatment, molar ratio not stated
[7] = precipitation without further treatment, 5:1 ratio

CCCCCCCC(CC(=O)O)OC(=O)CC(CCCCCCC)O[C@@H]1OC(C)[C@H](O)C(O)C1O[C@@H]1OC(C)[C@H](O)C(O)C1O (some centres unmarked) [dirhamnolipid]
uranium removal percentage [1]: about 75%

CCCCCCCC(CC(=O)O)OC1OC[C@@H](O)[C@H](O)[C@H]1O (some centres unmarked) [Xyl-C10]
Mg^2+ removal [2, 5]: ≤ 30% | Pb^2+ removal [3, 5]: ≤ 30% | Pb^2+ maximum removal [3]: approximately 30% | La^3+ removal [4, 5]: ≤ 30%

CCCCCCCCCCCC(CC(=O)O)OC1OC[C@@H](O)[C@H](O)[C@H]1O (some centres unmarked) [Xyl-C14]
Pb^2+ maximum removal [3]: < 7% | La^3+ removal [4, 6]: 42.6%

CCCCCCCCCCCC(CC(=O)O)OC1O[C@H](CO)[C@H](O)[C@H](O)[C@H]1O (some centres unmarked) [Gal-C14]
Mg^2+ removal [2, 7]: 11.6% | Pb^2+ maximum removal [3]: 1.5% | La^3+ removal [4, 7]: 57.9%

CCCCCCCC(CC(=O)O)OC1O[C@H](CO)[C@H](O)[C@H](O)[C@H]1O (some centres unmarked) [Gal-C10]
Pb^2+ removal ([3]; precipitation followed by filtration, 2:1 molar ratio): 95.5% | Pb^2+ maximum removal [3]: 38%

CCCCCCCCCCCC(CC(=O)O)OC(=O)CC(CCCCCCCCCCC)OC1OC[C@@H](O)[C@H](O)[C@H]1O (some centres unmarked) [Xyl-C14-C14]
Mg^2+ removal [2, 6]: 17.1% | Pb^2+ maximum removal [3]: approximately 30%
